This is an account of results in US8916550B2, “Compounds for modulating TRPV3 function” (Hydra Biosciences, Inc., priority 2005, dated 2014).

What is called bioavailability is the share of a dose that reaches the circulation, judged against a reference dose that is usually intravenous. In general, half-life refers to how long it takes for the measured level to halve. A word on the clearance: it is a measure of how efficiently the substance is removed, as volume per time.

The target in one data set is T1, NaV1.2 (Homo sapiens, UniProt Q99250).
T1 construct: expressed in transfected cells
In words: Selectivity patch clamp, NaV1.2 channel. The format is cell-based. The note with it: fold selective for TRPV3 over NaV1.2; tested up to 30 μM, IC50 estimated. From the text:
(§1) Data is presented as fold selective.

A further data set addresses T2, TRPV1 (hTRPV1) (Homo sapiens, UniProt Q8NER1).
T2 construct: expressed in transfected cells
The data set can be described thus: Selectivity patch clamp, TRPV1 channel. The format is cell-based. To be noted: fold selective for TRPV3 over TRPV1; tested up to 30 μM, IC50 estimated.
From the text: as §1

The target in data set [1] is T3, rat TRPV6 (rTRPV6) (Rattus norvegicus, UniProt Q9R186).
T3 construct: expressed in transfected cells
T3 sequence (Q9R186 1-767): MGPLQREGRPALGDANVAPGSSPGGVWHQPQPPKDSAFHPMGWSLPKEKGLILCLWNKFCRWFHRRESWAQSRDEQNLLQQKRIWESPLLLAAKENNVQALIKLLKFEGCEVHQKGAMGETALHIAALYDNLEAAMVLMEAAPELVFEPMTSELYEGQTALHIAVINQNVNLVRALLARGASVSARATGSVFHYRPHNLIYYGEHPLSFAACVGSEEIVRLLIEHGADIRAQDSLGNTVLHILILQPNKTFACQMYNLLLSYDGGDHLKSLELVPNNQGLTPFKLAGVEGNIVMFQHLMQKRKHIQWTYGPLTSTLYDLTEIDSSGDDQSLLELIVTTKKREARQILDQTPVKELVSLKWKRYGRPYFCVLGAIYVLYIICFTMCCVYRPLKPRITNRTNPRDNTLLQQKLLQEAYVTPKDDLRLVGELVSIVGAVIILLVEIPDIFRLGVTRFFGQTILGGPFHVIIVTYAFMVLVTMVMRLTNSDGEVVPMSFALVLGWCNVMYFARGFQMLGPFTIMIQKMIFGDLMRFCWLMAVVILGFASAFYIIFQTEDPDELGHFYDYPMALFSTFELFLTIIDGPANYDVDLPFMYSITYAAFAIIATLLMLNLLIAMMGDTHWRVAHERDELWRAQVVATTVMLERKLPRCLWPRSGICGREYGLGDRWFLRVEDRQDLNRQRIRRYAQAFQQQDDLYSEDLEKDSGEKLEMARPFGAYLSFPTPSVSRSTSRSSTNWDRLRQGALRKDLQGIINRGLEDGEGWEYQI
In words: Selectivity patch clamp, TRPV6 channel. The data set is classed as cell-based. The note with it: fold selective for TRPV3 over TRPV6; tested up to 30 μM, IC50 estimated.
From the text: as §1

For data set [2], the system named is Male Holtzman rats, thermal injury. In words: Thermal injury model, thermal escape latency (Hargreaves). The data set is classed as in vivo, rat. The method, then: The thermal injury model was used to evaluate the effectiveness of an exemplary TRPV3 inhibitor in the treatment of nociceptive pain. FIG. 1 provides a schematic representation of the protocol used to evaluate a TRPV3 inhibitor in the thermal injury model.
Briefly, the following protocol was followed. Male Holtzman rats (approximately 300 grams) were tested on thermal escape using a Hargreaves type apparatus. Under light anesthesia, a thermal injury (52° C. for 45 seconds) was applied to one heel. The animals were tested for thermal escape latency of the injured and uninjured paw before and at 30, 60, 80 and 120 minutes after injury. Drug (a TRPV3 inhibitor or morphine) or vehicle (0.5% methylcellulose) was administered after the baseline measurement and approximately 15-20 minutes prior to the thermal injury. In addition to the escape latency measurement, behavioral observations were made throughout the experiment.

Data set [3] has as its system rats, CFA injected hindpaw. The data set can be described thus: Complete Freund's Adjuvant (CFA) model of inflammatory pain, latency to withdrawal. The format is in vivo, rat. The note with it: for Effect relative to diclofenac / TRPV1 inhibitor: highest dose tested, 200 mg/kg; for Thermal hyperalgesia (latency to withdrawal): intraperitoneal, tested 45 minutes later. On the procedure:
As outlined above, the Complete Freund's Adjuvant (CFA) model is a model of inflammatory pain. As such, it may be used to evaluate effectiveness in relieving pain caused by inflammation, for example, pain due to arthritis and other inflammatory conditions. FIG. 9 provides a schematic representation of the protocol used to evaluate a TRPV3 inhibitor in the CFA model.
Naive rats were pretested for sensitivity to a heat stimulus in the Hargreaves apparatus. The next day, 100 μL of complete Freund's adjuvant (CFA) was injected into the plantar surface of the right hindpaw. Two days later, in the morning, the rats were again pretested. In the afternoon, rats were injected with either vehicle control (methylcellulose or PEG-400) or with drug (TRPV3 inhibitor 64, TRPV3 inhibitor 15, TRPV1 inhibitor A-425619, or the non-steroidal anti-inflammatory diclofenac). Drugs or vehicle were injected intraperitoneally, and 45 minutes later rats were tested for hyperalgesia by applying the heat source to the CFA injected and uninjected hindpaw and measuring latency to withdrawal.

The subject of data set [4] is Male Holtzmann rats, intraplantar formalin. The data set can be described thus: Formalin model following intrathecal delivery. The format is in vivo, rat. The note with it: 10 mg/kg intrathecally. From the text: As outlined above, the formalin model involves injection of a formalin solution intradermally or intraperitoneally. Injection of formalin solution invokes a biphasic response, and thus provides a model for both nociceptive and inflammatory pain. The formalin model was used to evaluate the effectiveness of an exemplary TRPV3 inhibitor in the treatment of pain following intrathecal (IT) delivery. Efficacy following intrathecal delivery provides evidence that the compound can act centrally.
Briefly, the following protocol was followed. Male Holtzmann rats received intraplantar injections of 50 μL of 2% formalin. Paw flinching was detected by an automated sensor detecting movement of a small metal band placed on the injected hind paw. Drug or vehicle was administered intrathecally approximately 15 minutes prior to the injection of formalin. The animal's response to injection of the irritant was measured by counting flinches per minutes during the Early Phase and during the Late Phase.
Flinches per minute, a measure of the pain and discomfort experienced by the animal, was measured following formalin injection in animals receiving either 10 mg/kg TRPV3 inhibitor (Compound 64) or a vehicle control (0.5% DCC). The TRPV3 inhibitor was formulated in 20% DMSO/20% cremaphore/10% cyclodextrin (DCC) and administered intrathecally. […]

Data set [5] relates to Male Holtzman rats, substance-P induced thermal hyperalgesia. In words: Intrathecal substance-P induced thermal hyperalgesia. The data set is classed as in vivo, rat. The note with it: 200 mg/kg IP, 30 minutes prior to substance-P; p<0.05 between groups. The method, then:
The efficacy of a TRPV3 antagonist in diminishing hyperalgesia was assessed in a model of intrathecal administered substance-P induced thermal hyperalgesia. Male Holtzman rats were used in this study and thermal escape was measured using a Hargreaves apparatus. Thermal escape was measured pre-treatment (baseline), and at intervals following intrathecal administration of substance-P (tested at 15, 30, 45, and 60 minutes post substance-P administration). Control animals were administered vehicle intraperitoneally after baseline assessment and 30 minutes prior to substance P administration. Experimental animals receiving a TRPV3 inhibitor (compound 64) were administered compound intraperitoneally after baseline assessment and 30 minutes prior to substance P administration.
Substance-P induced rats were surgically prepared with a lumbar intrathecal catheter using clean surgical technique while under inhalation anesthesia (isoflurane). The catheter was externalized at the back of the head to minimize handling of the animal during drug delivery. […]
Briefly, baseline mean paw latencies were determined prior to substance-P administration. […] After injection of substance P intrathecally via the previously placed catheter (counted as time=0), measurements of escape latency were taken at 15, 30, 45, and 60 minutes post-substance-P administration. […]

The nature of data set [6]: Plasma levels by HPLC/MS/MS after administration. The note with it: rat. The format is in vivo. The method, then: The plasma levels of TRPV3 inhibitor 15 were determined via HPLC/MS/MS following administration to male Sprague-Dawley rats. Rats were administered a single intravenous bolus dose of 1.2 mg/kg, an intraperitoneal dose of a suspension of 30 or 60 mg/kg, an oral dose of a solution of 8.6 mg/kg, or an oral dose of a suspension of 6.9 mg/kg.
For intravenous administration, TRPV3 inhibitor 15 solutions were formulated in Solutol at a target concentration of 0.25 mg/mL. The solution was administered as a rapid bolus (approximately 2-3 seconds) via the tail vein of conscious rats or via jugular vein catheter in anesthetized rats. The solution was administered at a dose volume of 4 mL/kg.
For intraperitoneal administration, TRPV3 inhibitor 15 was formulated as a uniform suspension in CMC (carboxymethylcellulose) at a target concentration of 5 mg/mL. The suspension was administered at a dose volume of 10 mL/kg.
For oral administration, TRPV3 inhibitor 15 was formulated as either a uniform suspension in CMC or as a solution in Solutol. The target concentration was 1 mg/mL. Oral administration was by gavage at a dose volume of 10 mL/kg to conscious, fasted, male Sprague-Dawley rats.

Data set [7] concerns Male Holtzman rats, thermal injury. The note with it: Table B comparators; based on our data as well as data available in the literature; cited from earlier work.
Data set [8] concerns rats, CFA injected hindpaw. To be noted: Table B comparators; based on our data as well as data available in the literature; cited from earlier work.
Data set [9] deals with T3, rat TRPV6 (rTRPV6). The note with it: (Clapham et al.); cited from earlier work.
Another data set addresses human ERG (hERG) (Homo sapiens, UniProt Q12809). In words: Selectivity patch clamp, hERG channel. To be noted: fold selective for TRPV3 over hERG; tested up to 30 μM, IC50 estimated.

Read-outs that look alike come from different tables or passages of the source.

T2 sequence (Q8NER1 whole entry): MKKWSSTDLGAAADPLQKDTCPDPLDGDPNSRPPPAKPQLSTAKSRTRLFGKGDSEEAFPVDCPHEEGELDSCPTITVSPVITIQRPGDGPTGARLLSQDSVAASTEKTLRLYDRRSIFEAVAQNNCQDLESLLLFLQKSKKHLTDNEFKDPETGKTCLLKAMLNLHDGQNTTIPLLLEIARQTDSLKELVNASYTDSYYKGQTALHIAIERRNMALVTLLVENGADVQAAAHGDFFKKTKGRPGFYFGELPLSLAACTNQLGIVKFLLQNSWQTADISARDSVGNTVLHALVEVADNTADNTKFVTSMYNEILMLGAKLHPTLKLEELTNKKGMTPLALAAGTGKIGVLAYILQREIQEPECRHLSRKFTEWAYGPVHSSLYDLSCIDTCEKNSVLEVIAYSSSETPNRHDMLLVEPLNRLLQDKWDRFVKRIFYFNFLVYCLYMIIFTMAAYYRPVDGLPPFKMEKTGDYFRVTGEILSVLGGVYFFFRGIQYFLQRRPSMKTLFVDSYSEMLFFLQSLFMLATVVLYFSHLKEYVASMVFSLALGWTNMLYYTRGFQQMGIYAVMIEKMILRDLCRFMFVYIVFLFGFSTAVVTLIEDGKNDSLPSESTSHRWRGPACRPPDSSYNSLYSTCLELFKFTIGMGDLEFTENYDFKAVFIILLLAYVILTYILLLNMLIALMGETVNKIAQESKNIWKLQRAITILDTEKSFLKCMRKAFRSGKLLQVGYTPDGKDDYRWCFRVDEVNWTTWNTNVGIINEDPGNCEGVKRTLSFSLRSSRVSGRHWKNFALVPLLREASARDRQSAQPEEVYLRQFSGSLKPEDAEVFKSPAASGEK
T1 sequence (Q99250 whole entry): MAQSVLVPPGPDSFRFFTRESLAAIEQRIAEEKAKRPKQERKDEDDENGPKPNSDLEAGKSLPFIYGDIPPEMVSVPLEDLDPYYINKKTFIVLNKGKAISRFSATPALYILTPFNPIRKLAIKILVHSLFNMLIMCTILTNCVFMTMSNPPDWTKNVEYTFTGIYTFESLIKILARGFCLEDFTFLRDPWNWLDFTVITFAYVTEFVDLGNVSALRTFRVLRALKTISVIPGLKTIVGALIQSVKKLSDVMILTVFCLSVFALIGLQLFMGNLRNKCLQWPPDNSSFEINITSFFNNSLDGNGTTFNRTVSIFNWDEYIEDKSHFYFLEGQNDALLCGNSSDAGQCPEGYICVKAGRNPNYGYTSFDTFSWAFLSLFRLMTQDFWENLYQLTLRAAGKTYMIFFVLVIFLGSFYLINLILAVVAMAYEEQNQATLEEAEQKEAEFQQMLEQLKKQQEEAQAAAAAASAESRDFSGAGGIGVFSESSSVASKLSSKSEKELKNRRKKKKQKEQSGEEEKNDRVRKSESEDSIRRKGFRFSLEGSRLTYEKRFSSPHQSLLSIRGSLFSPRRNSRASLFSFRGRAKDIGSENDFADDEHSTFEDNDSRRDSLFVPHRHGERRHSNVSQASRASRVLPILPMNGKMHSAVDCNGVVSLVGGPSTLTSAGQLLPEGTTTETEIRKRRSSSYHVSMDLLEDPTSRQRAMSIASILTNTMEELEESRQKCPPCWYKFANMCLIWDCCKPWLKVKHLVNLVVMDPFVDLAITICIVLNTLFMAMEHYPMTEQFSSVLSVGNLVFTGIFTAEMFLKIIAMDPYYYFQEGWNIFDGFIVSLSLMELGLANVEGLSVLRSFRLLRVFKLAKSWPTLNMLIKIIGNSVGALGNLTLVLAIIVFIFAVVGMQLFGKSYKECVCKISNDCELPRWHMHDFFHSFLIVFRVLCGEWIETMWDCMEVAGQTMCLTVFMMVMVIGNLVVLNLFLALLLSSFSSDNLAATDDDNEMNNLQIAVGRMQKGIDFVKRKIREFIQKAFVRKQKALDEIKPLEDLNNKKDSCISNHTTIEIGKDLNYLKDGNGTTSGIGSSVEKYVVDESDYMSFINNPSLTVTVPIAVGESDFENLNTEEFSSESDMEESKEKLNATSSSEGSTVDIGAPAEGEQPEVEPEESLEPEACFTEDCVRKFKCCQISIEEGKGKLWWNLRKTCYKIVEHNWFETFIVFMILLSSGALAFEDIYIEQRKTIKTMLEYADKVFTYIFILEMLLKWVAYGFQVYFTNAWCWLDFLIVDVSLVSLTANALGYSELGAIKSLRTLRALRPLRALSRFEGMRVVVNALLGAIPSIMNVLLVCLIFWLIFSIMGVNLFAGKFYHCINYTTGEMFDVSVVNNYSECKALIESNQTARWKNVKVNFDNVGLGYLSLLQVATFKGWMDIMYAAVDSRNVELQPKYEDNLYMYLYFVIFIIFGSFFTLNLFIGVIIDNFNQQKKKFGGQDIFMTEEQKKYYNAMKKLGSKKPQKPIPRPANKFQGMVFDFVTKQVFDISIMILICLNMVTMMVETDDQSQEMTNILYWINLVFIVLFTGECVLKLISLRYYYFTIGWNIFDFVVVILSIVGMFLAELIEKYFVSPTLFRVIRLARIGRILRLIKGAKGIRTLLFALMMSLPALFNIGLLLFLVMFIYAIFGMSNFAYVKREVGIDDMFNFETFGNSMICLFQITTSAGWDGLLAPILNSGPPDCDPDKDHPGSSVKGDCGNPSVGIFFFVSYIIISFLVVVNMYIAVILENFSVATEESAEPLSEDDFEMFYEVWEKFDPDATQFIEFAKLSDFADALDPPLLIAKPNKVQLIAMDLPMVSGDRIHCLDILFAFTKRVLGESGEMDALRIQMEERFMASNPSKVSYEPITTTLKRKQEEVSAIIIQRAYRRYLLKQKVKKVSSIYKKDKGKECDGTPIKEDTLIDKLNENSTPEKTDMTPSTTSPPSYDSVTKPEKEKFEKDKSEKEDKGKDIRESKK
human ERG (hERG), sequence (Q12809 whole entry): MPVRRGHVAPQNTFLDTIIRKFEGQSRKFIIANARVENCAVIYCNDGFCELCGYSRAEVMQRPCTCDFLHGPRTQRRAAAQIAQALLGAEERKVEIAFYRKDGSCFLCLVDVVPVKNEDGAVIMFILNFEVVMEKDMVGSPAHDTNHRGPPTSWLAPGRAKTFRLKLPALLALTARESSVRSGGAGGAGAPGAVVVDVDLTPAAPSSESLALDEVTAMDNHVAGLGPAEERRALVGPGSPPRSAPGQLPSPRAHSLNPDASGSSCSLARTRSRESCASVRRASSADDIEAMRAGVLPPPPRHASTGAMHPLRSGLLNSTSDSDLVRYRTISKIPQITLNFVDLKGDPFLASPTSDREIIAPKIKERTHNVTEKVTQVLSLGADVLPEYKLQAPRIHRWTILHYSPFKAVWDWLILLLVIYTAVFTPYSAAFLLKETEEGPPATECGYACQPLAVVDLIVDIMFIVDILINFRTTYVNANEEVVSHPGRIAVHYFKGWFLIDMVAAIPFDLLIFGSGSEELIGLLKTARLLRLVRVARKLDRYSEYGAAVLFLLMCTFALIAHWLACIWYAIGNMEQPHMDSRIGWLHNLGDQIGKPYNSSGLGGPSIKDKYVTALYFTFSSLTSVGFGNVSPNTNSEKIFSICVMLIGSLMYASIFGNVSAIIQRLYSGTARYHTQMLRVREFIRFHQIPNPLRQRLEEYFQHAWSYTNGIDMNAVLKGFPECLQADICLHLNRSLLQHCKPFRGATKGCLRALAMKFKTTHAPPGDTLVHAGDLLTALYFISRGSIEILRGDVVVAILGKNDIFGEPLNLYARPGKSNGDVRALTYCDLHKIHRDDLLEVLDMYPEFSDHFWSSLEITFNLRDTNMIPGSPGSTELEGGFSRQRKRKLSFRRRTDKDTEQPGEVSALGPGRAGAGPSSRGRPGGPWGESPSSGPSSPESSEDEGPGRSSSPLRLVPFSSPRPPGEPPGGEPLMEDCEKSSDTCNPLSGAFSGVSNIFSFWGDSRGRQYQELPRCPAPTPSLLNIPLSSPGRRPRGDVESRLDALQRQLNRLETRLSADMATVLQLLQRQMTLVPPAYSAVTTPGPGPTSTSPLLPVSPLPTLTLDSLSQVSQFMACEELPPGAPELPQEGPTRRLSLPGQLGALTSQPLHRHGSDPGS
Method for human ERG (hERG): Compounds of interest were tested against these channels at concentrations up to 30 μM, and the resulting data were used to estimate IC50. Data is presented as fold selective.

As for `O=C(CSc1nc2ccccc2s1)N1CCCc2ccccc21` [Compound 64, 2-(Benzo[d]thiazol-2-ylthio)-1-(3,4-dihydroquinolin-1(2H)-yl)ethanone], the “TRPV3:NaV1.2 fold selectivity” value at NaV1.2 is above 40 fold. Moreover, on TRPV1 (hTRPV1), the “TRPV3:TRPV1 fold selectivity” value was above 40 fold. Also, on rat TRPV6 (rTRPV6) [1], the “TRPV3:TRPV6 fold selectivity” value is reported as above 40 fold. Also, the “Escape latency in the injured paw” value in data set [2] (200 mg/kg) is “comparable to that observed prior to injury”. For the same molecule, the “Escape latency in the uninjured paw” value in data set [2] (even at the highest concentrations administered (FIG. 3)) was “no effect on the uninjured paw”. Besides, the “Escape latency in the injured paw” value in data set [2] (increasing concentrations of inhibitor vs methylcellulose control (FIG. 2)) is given as “significantly diminished pain”. Moreover, in [3], the “Effect relative to diclofenac / TRPV1 inhibitor” value was “more potent than the effects of either the non-steroidal anti-inflammatory or the TRPV1 inhibitor” and the “Thermal hyperalgesia (latency to withdrawal)” value is “reduced thermal hyperalgesia”. In addition, in data set [3] (individual rats, FIG. 11), the “Pain sensitivity of inflamed paw” value is on record as “returns pain sensitivity to baseline levels”. In addition, the Flinches per minute result in data set [4] (about 15 minutes prior to formalin, vs vehicle) is reported as “substantially reduced the flinches per minute”. In data set [4] (Late Phase), the “Flinches per minute, Late Phase” value was “statistically significant reduction”. Moreover, the “Thermal hyperalgesia (mean paw latency)” value in data set [5] is listed as “reversed the hyperalgesia”.
As to `Cc1cccc2c1N(C(=O)CSc1nc3ccccc3s1)CCC2` [Compound 46, 2-(Benzothiazol-2-ylsulfanyl)-1-(8-methyl-3,4-dihydro-2H-quinolin-1-yl)-ethanone], the “TRPV3:TRPV1 fold selectivity” value at TRPV1 (hTRPV1) is above 200 fold.
For the molecule `Cc1cccc2c1N(C(=O)CSc1nc3cc(Cl)ccc3s1)CCC2` [Compound 15, 2-(5-Chlorobenzothiazol-2-ylsulfanyl)-1-(8-methyl-3,4-dihydro-2H-quinolin-1-yl)-ethanone], on NaV1.2, the “TRPV3:NaV1.2 fold selectivity” value is reported as above 1000 fold. Moreover, the “TRPV3:TRPV1 fold selectivity” value on TRPV1 (hTRPV1) is above 1000 fold. Moreover, the “TRPV3:TRPV6 fold selectivity” value on rat TRPV6 (rTRPV6) [1] was above 1000 fold. In data set [3], the “Effect relative to diclofenac / TRPV1 inhibitor” value is listed as “more potent than the effects of the non-steroidal anti-inflammatory” and the “Thermal hyperalgesia (latency to withdrawal)” value is reported as “reduced thermal hyperalgesia”. Besides, the bioavailability in data set [6] (male, Sprague-Dawley, fasted rats, oral, solution or suspension, read-out: Estimated bioavailability) is around 5%. Moreover, in [6] (male Sprague-Dawley rats, read-out: Estimated half-life (converted)), the half-life was 1.6 h. Moreover, the clearance in data set [6] (male Sprague-Dawley rats, read-out: Estimated plasma clearance) is 41 mL/min/kg. Besides, the Vd in data set [6] (male Sprague-Dawley rats, read-out: Estimated volume of distribution) is 5.51 L/kg.
On to `NCC1(CC(=O)O)CCCCC1` [Gabapentin], for which the Acute thermal injury entry in data set [7] is “Effective”. Besides, the “CFA Model” value in data set [8] is “Ineffective”.
On to `N.N.N.N.N.N.N.N.N.N.N.N.N.N.[Cl-].[Cl-].[Cl-].[Cl-].[Cl-].[Cl-].[O-2].[O-2].[Ru+3].[Ru+3].[Ru+4]` [Ruthenium Red], for which the “TRPV3:TRPV1 fold selectivity” value on TRPV1 (hTRPV1) was 3 fold selective. Also, on rat TRPV6 (rTRPV6) [9], the “TRPV3:TRPV6 fold selectivity” value is 10 fold. Besides, the “TRPV3:hERG fold selectivity” value at human ERG (hERG) was above 40 fold.
